ChEMBL document CHEMBL3351946, “Design and synthesis of potent antitumor water-soluble phenyl N-mustard-benzenealkylamide conjugates via a bioisostere approach” (Eur J Med Chem, 2014)
pIC50: −log10 of the molar value. Active and inactive are the calls of the source. No cut-off for these calls is given here.

What was measured:
CCRF-CEM [1] = experiment: Cytotoxicity against human CCRF-CEM cells assessed as growth inhibition after 72 hrs by Alamar Blue assay; type: functional, cell-based
CCRF-CEM [2] = experiment: Cytotoxicity against vinblastine-resistant human CCRF-CEM cells assessed as growth inhibition after 72 hrs by Alamar Blue assay; type: functional, cell-based
[3] = Cytotoxicity against human PC3 cells assessed as growth inhibition after 72 hrs by Alamar Blue assay; type: functional, cell-based; settings: PC-3, 72 h
HT-29 = experiment: Cytotoxicity against human HT-29 cells assessed as growth inhibition after 72 hrs by Alamar Blue assay; type: functional, cell-based; settings: HT-29, 72 h
[4] = Cytotoxicity against human H460 cells assessed as growth inhibition after 72 hrs by Alamar Blue assay; type: functional, cell-based; settings: NCI-H460, 72 h
[5] = Cytotoxicity against human H1299 cells assessed as growth inhibition after 72 hrs by Alamar Blue assay; type: functional, cell-based; settings: NCI-H1299, 72 h
[6] = Cytotoxicity against human HCT116 cells assessed as growth inhibition after 72 hrs by Alamar Blue assay; type: functional, cell-based; settings: HCT-116, 72 h
CCRF-CEM [7] = experiment: Resistance factor, ratio of IC50 for vinblastine-resistant human CCRF-CEM cells to IC50 for human CCRF-CEM cells; type: functional
[8] = Cytotoxicity against human H3347 cells assessed as growth inhibition after 72 hrs by Alamar Blue assay; type: functional, cell-based; settings: H3347, 72 h
[9] = Cytotoxicity against human DLD1 cells assessed as growth inhibition after 72 hrs by Alamar Blue assay; type: functional, cell-based; settings: DLD-1, 72 h
[10] = Antitumor activity against human HCT116 cells xenografted in nude mouse assessed as tumor growth inhibition at 30 mg/kg,iv qd administered for 6 days measured on day 13 relative to control; type: functional, HCT-116
[11] = Antitumor activity against human HCT116 cells xenografted in nude mouse assessed as tumor growth inhibition at 30 mg/kg,iv qd administered for 6 days measured on day 30 relative to control; type: functional; settings: HCT-116, iv, read-out: TGI
Mus musculus [12] = experiment: Toxicity in nude mouse xenografted with human HCT116 cells assessed as body weight loss at 30 mg/kg,iv qd administered for 6 days measured on day 13 relative to control; type: organism-based, HCT-116; design: dose 30 mg/kg; settings: in vivo, 144 h
Mus musculus [13] = experiment: Toxicity in nude mouse xenografted with human HCT116 cells assessed as change in body weight at 30 mg/kg,iv qd administered for 6 days measured on day 30 relative to control; type: organism-based, HCT-116; design: dose 30 mg/kg; settings: in vivo, 144 h
HCT-116 = experiment: Antitumor activity against human HCT116 cells xenografted in nude mouse assessed as survival at 30 mg/kg,iv qd administered for 6 days; type: functional, organism-based; design: dose 30 mg/kg
[14] = Induction of pEGFP-N1 DNA (unknown origin) interstand crosslinking after 2 hrs by alkaline agarose gel shift assay
[15] = Antitumor activity against human HCT116 cells xenografted in nude mouse assessed as tumor growth inhibition at 30 mg/kg,iv qd administered for 6 days measured on day 15 relative to control; type: functional, HCT-116
[16] = Antitumor activity against human H3347 cells xenografted in nude mouse assessed as tumor growth inhibition at 30 mg/kg,iv qd administered for 6 days measured on day 16 relative to control; type: functional
[17] = Antitumor activity against human H3347 cells xenografted in nude mouse assessed as tumor growth inhibition at 30 mg/kg,iv qd administered for 6 days measured on day 31 relative to control; type: functional; settings: read-out: TGI
[18] = Antitumor activity against human HCT116 cells xenografted in nude mouse assessed as tumor growth inhibition at 30 mg/kg,iv qd administered for 6 days measured on day 31 relative to control; type: functional; settings: HCT-116, iv, read-out: TGI
Mus musculus [19] = experiment: Toxicity in nude mouse xenografted with human H3347 cells assessed as body weight loss at 30 mg/kg,iv qd administered for 6 days; type: organism-based; design: dose 30 mg/kg; settings: in vivo, 144 h
Mus musculus [20] = experiment: Toxicity in nude mouse xenografted with human HCT116 cells assessed as change in body weight at 30 mg/kg,iv qd administered for 6 days measured on day 31 relative to control; type: organism-based, HCT-116; design: dose 30 mg/kg; settings: in vivo, 144 h
Mus musculus [21] = experiment: Toxicity in nude mouse xenografted with human H3347 cells assessed as change in body weight at 30 mg/kg,iv qd administered for 6 days measured on day 31 relative to control; type: organism-based; design: dose 30 mg/kg; settings: in vivo, 144 h
H3347 = experiment: Antitumor activity against human H3347 cells xenografted in nude mouse assessed as survival at 30 mg/kg,iv qd administered for 6 days; type: functional, organism-based; design: dose 30 mg/kg
[22] = Toxicity in mouse; type: organism-based; settings: in vivo
[23] = Acute toxicity in iv dosed mouse administered for 14 days; type: organism-based; settings: in vivo
[24] = Antitumor activity against human PC3 cells xenografted in nude mouse assessed as tumor growth inhibition at 40 mg/kg,iv administered every 2 days for 5 doses measured on day 28 to 31 relative to control; type: functional, PC-3
[25] = Antitumor activity against human H460 cells xenografted in nude mouse assessed as tumor growth inhibition at 30 mg/kg,iv qd administered for 6 days measured on day 15 relative to control; type: functional, NCI-H460
[26] = Antitumor activity against human PC3 cells xenografted in nude mouse assessed as tumor growth inhibition at 40 mg/kg,iv administered every 2 days for 5 doses measured on day 38 relative to control; type: functional; settings: PC-3, iv, read-out: TGI
[27] = Antitumor activity against human H460 cells xenografted in nude mouse assessed as tumor growth inhibition at 30 mg/kg,iv qd administered for 6 days measured on day 37 relative to control; type: functional; settings: NCI-H460, iv, read-out: TGI
Mus musculus [28] = experiment: Toxicity in nude mouse xenografted with human PC3 cells assessed as body weight loss at 40 mg/kg,iv administered every 2 days for 5 doses measured on day 13 relative to control; type: organism-based, PC-3; design: dose 40 mg/kg; settings: in vivo, 48 h
Mus musculus [29] = experiment: Toxicity in nude mouse xenografted with human H460 cells assessed as body weight loss at 30 mg/kg,iv qd administered for 6 days measured on day 15 relative to control; type: organism-based; design: dose 30 mg/kg; settings: in vivo, 144 h
Mus musculus [30] = experiment: Toxicity in nude mouse xenografted with human PC3 cells assessed as change in body weight at 40 mg/kg,iv administered every 2 days for 5 doses measured on day 38 relative to control; type: organism-based, PC-3; design: dose 40 mg/kg; settings: in vivo, 48 h
Mus musculus [31] = experiment: Toxicity in nude mouse xenografted with human H460 cells assessed as body weight loss at 30 mg/kg,iv qd administered for 6 days measured on day 37 relative to control; type: organism-based; design: dose 30 mg/kg; settings: in vivo, 144 h
NCI-H460 = experiment: Antitumor activity against human H460 cells xenografted in nude mouse assessed as survival at 30 mg/kg,iv qd administered for 6 days; type: functional, organism-based; design: dose 30 mg/kg

Compound | pIC50 (CCRF-CEM [1]) | pIC50 (CCRF-CEM [2]) | pIC50 [3] | pIC50 (HT-29) | pIC50 [4] | pIC50 [5] | pIC50 [6] | Ratio IC50 (CCRF-CEM [7]) | pIC50 [8] | pIC50 [9] | further results
O=C(CN1CCCCC1)Nc1ccc(NC(=O)Nc2ccc(N(CCCl)CCCl)cc2)cc1 | 6.51 | 5.84 | 5.65 | 4.93 | 5.98 | 5.60 | 6.00 | 4.68 | 5.94 | 5.34 | 
O=C(CCN1CCCC1)Nc1ccc(NC(=O)Nc2ccc(N(CCCl)CCCl)cc2)cc1 | 6.55 | 4.77 | 5.46 | 4.85 | 5.99 | 5.19 | 5.54 | 61.14 | 5.43 | 4.86 | 
O=C(CN1CCCC1)Nc1ccc(NC(=O)Nc2ccc(N(CCCl)CCCl)cc2)cc1 | 6.59 | 5.70 | 5.45 | 4.91 | 6.02 | 5.47 | 5.88 | 7.69 | 5.82 | 5.36 | 
CCN(CC)CCC(=O)Nc1ccc(NC(=O)Nc2ccc(N(CCCl)CCCl)cc2)cc1 | 6.52 | 5.08 | 5.61 | 4.71 | 5.74 | 4.99 | 5.51 | 27.57 | 5.99 | 5.11 | 
O=C(CCN1CCCCC1)Nc1ccc(NC(=O)Nc2ccc(N(CCCl)CCCl)cc2)cc1 |  | 5.21 | 5.64 | 4.91 | 5.80 | 5.52 | 5.62 |  | 5.62 | 5.19 | 
O=c1[nH]cc(F)c(=O)[nH]1 [FLUOROURACIL] |  |  |  | 4.60 |  |  |  |  | 4.93 | 4.54 | 
CN(C)CCC(=O)Nc1ccc(NC(=O)Nc2ccc(N(CCCl)CCCl)cc2)cc1 |  |  |  | 4.63 |  |  |  |  | 5.54 | 5.01 | 
CN(C)CC(=O)Nc1ccc(NC(=O)Nc2ccc(N(CCCl)CCCl)cc2)cc1 | 6.54 | 5.87 | 5.13 | 4.70 | 5.92 | 5.27 | 6.07 | 4.62 | 5.82 | 5.24 | %max [10]: 72%; inhibition in vivo at 30 mg/kg [11]: 51%; body weight change relative to control (Mus musculus [12]): -3%; Activity (Mus musculus [13]): 3%; Activity (HCT-116): Active; Activity [14]: Dose-dependent effect
CCc1c2c(nc3ccc(OC(=O)N4CCC(N5CCCCC5)CC4)cc13)-c1cc3c(c(=O)n1C2)COC(=O)[C@]3(O)CC [IRINOTECAN] |  |  |  | 4.08 |  |  |  |  | 5.12 | 4.60 | %max [15]: 92%; %max [16]: 90%; inhibition in vivo at 30 mg/kg [17]: 90%; inhibition in vivo at 30 mg/kg [18]: 85%; body weight change relative to control (Mus musculus [12]): -3%; %max (Mus musculus [19]): 0%; Activity (Mus musculus [20]): 8%; Activity (Mus musculus [21]): 8%; Activity (HCT-116): Active; Activity (H3347): Active
CN(C)CCNC(=O)c1cccc(NC(=O)Nc2ccc(N(CCCl)CCCl)cc2)c1 |  | 5.98 | 4.75 |  | 4.42 | 4.83 | 5.31 | 0.85 |  |  | MTD [22]: 30 mg/kg; LD50 at 336 h [23]: 76 mg/kg; %max [15]: 81%; %max [24]: 94%; %max [25]: 17%; inhibition in vivo at 30 mg/kg [18]: 79%; inhibition in vivo at 40 mg/kg [26]: 89%; inhibition in vivo at 30 mg/kg [27]: 8%; body weight change relative to control (Mus musculus [12]): -7%; %max (Mus musculus [28]): -16%; %max (Mus musculus [29]): -16%; Activity (Mus musculus [20]): 0%; Activity (Mus musculus [30]): -2%; Activity (Mus musculus [31]): -6%; Activity (HCT-116): Active; Activity (NCI-H460): Active
O=C(CN1CCC(N2CCCCC2)CC1)Nc1ccc(NC(=O)Nc2ccc(N(CCCl)CCCl)cc2)cc1 | 5.94 | 4.28 | 5.14 |  | 4.83 | 4.84 | 5.37 | 45.8 |  |  | 
O=C(CCN1CCCC1)Nc1cccc(NC(=O)Nc2ccc(N(CCCl)CCCl)cc2)c1 | 6.17 | 4.57 | 4.99 |  | 5.01 | 5.36 | 5.29 | 40.42 |  |  | 
